We go through 17 molecules from patent US7786141B2 (Vertex Pharmaceuticals Incorporated, priority 2004, dated 2010).

For one test, the target named is T1, M1 muscarinic receptor (Homo sapiens, UniProt P11229).
T1 construct: expressed in transfected cells; host or cells: CHO (M1-CHO)
T1 sequence (P11229 1-460): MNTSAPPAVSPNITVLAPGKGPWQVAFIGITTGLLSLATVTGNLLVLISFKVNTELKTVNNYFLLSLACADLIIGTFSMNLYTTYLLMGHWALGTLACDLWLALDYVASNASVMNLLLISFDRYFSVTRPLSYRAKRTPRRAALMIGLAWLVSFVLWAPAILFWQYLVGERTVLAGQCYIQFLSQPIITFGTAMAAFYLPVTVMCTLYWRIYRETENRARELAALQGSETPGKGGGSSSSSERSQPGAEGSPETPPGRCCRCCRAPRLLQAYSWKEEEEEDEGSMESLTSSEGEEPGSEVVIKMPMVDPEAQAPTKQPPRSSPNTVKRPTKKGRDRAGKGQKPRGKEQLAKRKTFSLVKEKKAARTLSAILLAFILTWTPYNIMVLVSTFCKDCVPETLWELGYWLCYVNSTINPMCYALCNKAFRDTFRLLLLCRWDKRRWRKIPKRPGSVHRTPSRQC
Nature of the test: Functional mobilization of intracellular calcium (FLIPR) in M1-CHO cells. The test is classed as cell-based. The following applies: M1 receptor, calcium mobilization; for Emax: read-out: M1 Efficacy. The protocol: (§1) Functional Mobilization of Intracellular Calcium to Determine Muscarinic Receptor Activity:
(§2) CHO cells expressing muscarinic receptors (M1 to M5) are grown as monolayers in tissue culture flasks at 37° C. in a humidified atmosphere containing 5% CO2 and passaged every 3-5 days. The growth media is Dulbecco's modified eagles medium (DMEM, Gibco Cat# 12430-054), containing 25 mM Hepes and supplemented with Fetal Bovine Serum (Hyclone, cat# SH30071.03), 0.1 mM of MEM non-essential amino acids (GIBCO, Cat# 11140-050), 1 mM MEM Sodium Pyruvate (GIBCO Cat# 11360-070) and 100 units/ml of Penicillin G and 100 μg/ml of Streptomycin (GIBCO Cat# 15140-122). The recombinant muscarinic receptor cell lines are grown under antibiotic pressure with media containing 25 μg/ml zeocin and 500 μg/ml G418 (M1-CHO), 4 μg/ml puromycin, 50 μg/ml zeocin and 2.5 μg/ml blasticidin (M2 and M4-CHO) or 50 μg/ml zeocin and 4 μg/ml puromycin (M3 and M5-CHO).
(§3) Cells are harvested at 80-90% confluence using Versene (GIBCO Cat# 15040-066), collected by centrifugation and seeded 18-24 hrs prior to running the calcium assay at a density of 5,000 cells/well in back-walled, clear-bottomed 384-well plates (BD Biocoat, poly-D-lysine, Cat#356663). The day of the experiment, the cells are washed with a plate washer (Bioteck Instruments, ELX 405) using bath 1 buffer (140-mM NaCl, 4.5-mM KCl, 2-mM CaCl2, 1-mM MgCl2, 10-mM Hepes-Na, 10-mM Glucose, pH 7.4, with NaOH) containing 1 mM Probenecid. Next, the calcium dye Fluo-3 (25 μl/well of Fluo-3 AM at 4 μM, Molecular Probes F-1241, in Bath 1 buffer containing 1 mM Probenecid) is added to the 25 μl of Bath 1 remaining in each well after the plate wash and the dye is loaded at 37° C. in the tissue culture incubator for 60-90 min. The fluorescent dye is removed using the plate washer with Bath 1 containing 1 mM Probenecid, leaving 25 μl/well of this solution after the wash. Alternatively, cells can be loaded with the calcium indicator from Molecular Devices (Calcium 3 Assay Reagents, Cat # R7181) adding 5 μl of a 5× solution dye in Bath 1 containing 1 mM Probenecid (10 ml per dye flask cat# R7182 to generate a solution 20×) to 20 μl of the same buffer. After loading for 60 min, the experiment can be run without having to remove the dye.
(§4) Compounds are prepared at a 2× fold concentration in a 96-well plate (round bottom, Costar Corning cat# 3656), by reconstituting the pre-spotted compounds in bath 1 containing 1 mM probenecid. The final concentration DMSO is 0.5%, and the amount of DMSO is normalized across the assay plate. To determine an agonist action of the compounds on muscarinic receptors, the reconstituted compounds are added (25 μl compound/well) to the cell assay plate (containing 25 μl/well) using the multi-channel robotic system of the FLIPR 3 Instrument (Molecular Devices, Sunnyvale, Calif.). To determine a functional inhibitory action of the compounds on muscarinic receptors, the reconstituted compounds are added (25 μl compound/well) to the assay plate and pre-incubated for 15 min prior to adding 25 μl of Carbachol at 3× the EC80 for each muscarinic subtype. Alternatively, the compounds can be co-applied simultaneously with the agonist. In both assay modes, the fluorescence is recorded for 60 sec (excitation wavelength is […] and emission wavelength 540 nm) using the FLIPR 3 instrument.
(§5) The potency, efficacy and selectivity of the muscarinic compounds were evaluated by screening the compound activity across the whole family (M1 to M5 cells). Compounds were also screened for activity on other proteins such as other GPCRs and ion channels to determine selectivity on M4 receptors.
(In general: Calcium assays in cells follow changes in intracellular calcium, usually with a dye or a luminescent sensor.)

A further test has as its target T2, M4 muscarinic receptor (Homo sapiens, UniProt P08173).
T2 construct: expressed in transfected cells; host or cells: CHO (M4-CHO)
T2 sequence (P08173 1-479): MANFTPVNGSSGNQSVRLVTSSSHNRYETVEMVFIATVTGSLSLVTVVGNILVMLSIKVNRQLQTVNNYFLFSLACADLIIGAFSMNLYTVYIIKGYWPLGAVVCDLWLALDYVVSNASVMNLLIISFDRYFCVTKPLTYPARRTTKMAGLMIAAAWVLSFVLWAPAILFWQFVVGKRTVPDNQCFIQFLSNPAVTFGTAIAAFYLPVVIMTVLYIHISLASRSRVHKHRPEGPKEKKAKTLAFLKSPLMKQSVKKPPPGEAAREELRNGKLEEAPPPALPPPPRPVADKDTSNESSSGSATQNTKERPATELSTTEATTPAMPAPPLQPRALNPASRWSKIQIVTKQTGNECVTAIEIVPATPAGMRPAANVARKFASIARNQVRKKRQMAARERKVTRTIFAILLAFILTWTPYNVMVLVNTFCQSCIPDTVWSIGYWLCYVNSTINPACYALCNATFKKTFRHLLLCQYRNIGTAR
As to the kind of experiment: Functional mobilization of intracellular calcium (FLIPR) in M4-CHO cells. The test is classed as cell-based. The following applies: M4 receptor, calcium mobilization; for Emax: read-out: M4 Efficacy. The protocol:
as §1, §2, §3, §4, §5

Structures are written as SMILES.

For the molecule `CCCOC(=O)N1CCC(CN2CCC3(CC2)C[C@H](NC(C)=O)c2ccccc23)CC1` [compound 36], on M1 muscarinic receptor, the “M1 Activity” value is recorded as “xxx (activity was measured to be less than 0.1 μM)” and the Emax is 65 to 85%. On M4 muscarinic receptor, the “M4 Activity” value was “xx (activity was measured to be between 0.1 μM and 1.0 μM)”; the Emax was above 85%.

Regarding `Clc1ccc2c(c1)C1(CCN(C3CCOCC3)CC1)CN2` [compound 37], on M1 muscarinic receptor, the “M1 Activity” value is listed as “xxx (activity was measured to be less than 0.1 μM)” and the Emax lay within 65 to 85%. Also, at M4 muscarinic receptor, the “M4 Activity” value was “xx (activity was measured to be between 0.1 μM and 1.0 μM)”; the Emax is above 85%.

Turning to `CCOC(=O)N1CCC(N2CCC3(CC2)CN(C(=O)OCCOC)c2ccc(F)cc23)CC1` [compound 38], at M1 muscarinic receptor, the “M1 Activity” value is recorded as “xxx (activity was measured to be less than 0.1 μM)” and the Emax was above 85%. On M4 muscarinic receptor, the “M4 Activity” value is “xxx (activity was measured to be less than 0.1 μM)” and the Emax was above 85%.

As for `CCOC(=O)N1CCC(N2CCC3(CC2)CN(C(=O)N(C)C)c2ccc(F)cc23)CC1` [compound 39], at M1 muscarinic receptor, the “M1 Activity” value was “xxx (activity was measured to be less than 0.1 μM)” and the Emax fell in the range of 65 to 85%. In addition, on M4 muscarinic receptor, the “M4 Activity” value is “xx (activity was measured to be between 0.1 μM and 1.0 μM)”; the Emax is above 85%.

Consider `CCOC(=O)N1CCC(N2CCC3(CC2)CN(C(=O)c2ccc(OC)cc2)c2ccc(F)cc23)CC1` [compound 41], for which, at M1 muscarinic receptor, the “M1 Activity” value was “xxx (activity was measured to be less than 0.1 μM)” and the Emax was above 85%. Also, at M4 muscarinic receptor, the “M4 Activity” value is reported as “xxx (activity was measured to be less than 0.1 μM)” and the Emax is above 85%.

In the case of `CCOC(=O)N1C2CCC1CC(N1CCC3(CC1)COc1ccc(F)cc13)C2` (centres unmarked) [compound 42], on M1 muscarinic receptor, the “M1 Activity” value is on record as “xxx (activity was measured to be less than 0.1 μM)” and the Emax is above 85%. Also, at M4 muscarinic receptor, the “M4 Activity” value was “xx (activity was measured to be between 0.1 μM and 1.0 μM)”; the Emax was above 85%.

As for `O=C(O[C@@H]1CCOC1)N1C2CCC1CC(N1CCC3(CCc4ccccc43)CC1)C2` (some centres unmarked) [compound 43], at M1 muscarinic receptor, the “M1 Activity” value is given as “xxx (activity was measured to be less than 0.1 μM)” and the Emax was above 85%. For the same molecule, at M4 muscarinic receptor, the “M4 Activity” value is listed as “x (activity was measured to be greater than 1.0 μM)” and the Emax is above 85%.

Take `COC(=O)N1C2CCC1CC(N1CCC3(CC1)CN(C(=O)c1cc(C)n(C)n1)c1ccc(F)cc13)C2` (centres unmarked) [compound 44]: on M1 muscarinic receptor, the “M1 Activity” value was “xxx (activity was measured to be less than 0.1 μM)” and the Emax is 65 to 85%. Besides, on M4 muscarinic receptor, the “M4 Activity” value is “xx (activity was measured to be between 0.1 μM and 1.0 μM)”; the Emax is above 85%.

As for `CCOC(=O)N1CCC(N2CCC3(CC2)CN(C(=O)c2cccc(OC)c2)c2ccc(F)cc23)CC1` [compound 45], on M1 muscarinic receptor, the “M1 Activity” value was “xxx (activity was measured to be less than 0.1 μM)” and the Emax was above 85%. In addition, at M4 muscarinic receptor, the “M4 Activity” value is “xxx (activity was measured to be less than 0.1 μM)” and the Emax was in the range of 65 to 85%.

On to `CCOC(=O)N1CCC(CN2CCC3(CC2)CN(C(C)=O)c2ccc(C)cc23)CC1` [compound 46], for which, at M1 muscarinic receptor, the “M1 Activity” value was “xxx (activity was measured to be less than 0.1 μM)” and the Emax is above 85%. Also, at M4 muscarinic receptor, the “M4 Activity” value is “xxx (activity was measured to be less than 0.1 μM)” and the Emax lay in the range of 65 to 85%.

On to `CC(=O)N1CC2(CCN(C3CC4CCC(C3)N4C(=O)O[C@H]3CCOC3)CC2)c2cc(F)ccc21` (some centres unmarked) [compound 47], for which, at M1 muscarinic receptor, the “M1 Activity” value is reported as “xxx (activity was measured to be less than 0.1 μM)” and the Emax is 65 to 85%. Further, on M4 muscarinic receptor, the “M4 Activity” value was “xx (activity was measured to be between 0.1 μM and 1.0 μM)”; the Emax fell in the range of 65 to 85%.

With `CN(C)C(=O)N1CC2(CCN(C3CCN(C(=O)OCCF)CC3)CC2)c2cc(F)ccc21` [compound 48], at M1 muscarinic receptor, the “M1 Activity” value is “xxx (activity was measured to be less than 0.1 μM)” and the Emax is above 85%. At M4 muscarinic receptor, the “M4 Activity” value was “xx (activity was measured to be between 0.1 μM and 1.0 μM)”; the Emax was in the range of 65 to 85%.

`CCOC(=O)N1CCC(N2CCC3(CC2)CN(C(=O)O[C@H]2CCOC2)c2ccc(F)cc23)CC1` [compound 49]: on M1 muscarinic receptor, the “M1 Activity” value is reported as “xxx (activity was measured to be less than 0.1 μM)” and the Emax is above 85%. For the same molecule, on M4 muscarinic receptor, the “M4 Activity” value is given as “xxx (activity was measured to be less than 0.1 μM)” and the Emax fell in the range of 65 to 85%.

As to `CCOC(=O)N1C2CCC1CC(N1CCC3(CC1)CN(C(=O)c1cc(C)n(C)n1)c1ccc(F)cc13)C2` (centres unmarked) [compound 50], at M1 muscarinic receptor, the “M1 Activity” value is “xxx (activity was measured to be less than 0.1 μM)” and the Emax was above 85%. In addition, on M4 muscarinic receptor, the “M4 Activity” value was “xx (activity was measured to be between 0.1 μM and 1.0 μM)”; the Emax is above 85%.

On to `Cc1ccc2c(c1)C1(CCN(C3CC4CCC3C4)CC1)CN2C(=O)C1CC1` (centres unmarked) [compound 51], for which, at M1 muscarinic receptor, the “M1 Activity” value is given as “xxx (activity was measured to be less than 0.1 μM)” and the Emax lay in the range of 65 to 85%. At M4 muscarinic receptor, the “M4 Activity” value was “xx (activity was measured to be between 0.1 μM and 1.0 μM)”; the Emax is 65 to 85%.

Take `CC(=O)N1CC2(CCN(C3CCCCC3C)CC2)c2cc(F)ccc21` (centres unmarked) [compound 52]: on M1 muscarinic receptor, the “M1 Activity” value is reported as “xxx (activity was measured to be less than 0.1 μM)” and the Emax was above 85%. Further, on M4 muscarinic receptor, the “M4 Activity” value is reported as “xxx (activity was measured to be less than 0.1 μM)” and the Emax lay within 65 to 85%.

As for `CCOC(=O)N1CCC(N2CCC3(CC2)CN(C(=O)c2ccccc2C)c2ccc(F)cc23)CC1` [compound 53], at M1 muscarinic receptor, the “M1 Activity” value is “xx (activity was measured to be between 0.1 μM and 1.0 μM)”; the Emax is below 65%. Moreover, on M4 muscarinic receptor, the “M4 Activity” value is “xx (activity was measured to be between 0.1 μM and 1.0 μM)”; the Emax is 65 to 85%.
